The numbers were not newly measured in patent US11398630B2, “Method of generating energy from a hydrazide containing anode fuel, and fuel cell” (priority 2019, dated 2022), which cites them from elsewhere.

Where two headings read alike, the source gives them in different places. Where only a bound is given, the exact number is not on record here.

In data set [1] the test system is rat.
The conditions of data set [2]: ambient conditions.

Take `B` [Borohydride]: the Toxicity-LD50 oral rat in data set [1] (oral, rat) is 160 mg/kg.
Take `NNC(=O)NN` [Carbohydrazide, carbohydrazide]: in data set [1] (compared with hydrazine), the toxicity in words entry is “nontoxic”. Also, the Toxicity-LD50 oral rat in data set [1] (oral, rat) is recorded as >5,000 mg/kg. Also, the LD50 in data set [1] (rat, printed as mg/kg-rat, route not given) is > 5,000 mg/kg. In addition, the miscibility with water result in data set [2] is on record as “^aUnder ambient conditions, carbohydrazide is a solid, but it is completely miscible with water”.
As for `COC` [Dimethyl ether], the Toxicity-LD50 oral rat in data set [1] (oral, rat) is >5,000 mg/kg.
As for `CCO` [Ethanol], in data set [1] (rat, in vivo, po), the Toxicity-LD50 oral rat is >5,000 mg/kg.
In the case of `CO` [Methanol], the Toxicity-LD50 oral rat in data set [1] (oral, rat) is given as >5,000 mg/kg.
As to `OCC(O)CO` [Glycerol], the Toxicity-LD50 oral rat in data set [1] (oral, rat) is listed as >5,000 mg/kg.
